Test results published in patent US7964642B2, “Vanilloid TRPV1 receptor antagonists” (Pharmeste S.R.L., priority 2004, dated 2011).

Columns and labels:
[1] = system: rat trigeminal neuronal cells; assay: Ca2+ fluorescence measurements in cultured rat trigeminal ganglia neurons: KCl-evoked [Ca2+]i mobilization; type: cell-based; settings: 5 mM KCl
vanilloid TRPV1 receptor [2] = molecular target: T1, vanilloid TRPV1 receptor (Rattus norvegicus, UniProt O35433); assay: Ca2+ fluorescence measurements in cultured rat trigeminal ganglia neurons: inhibition of capsaicin-induced calcium mobilisation; type: cell-based; settings: capsaicin 0.1 μM; for IC50: 10 minutes pre-incubation, mean and 95% fiducial limits, read-out: IC50 inhibiting capsaicin-evoked [Ca2+]i mobilization; for concentration giving complete inhibition of the response to capsaicin / threshold concentration that produced an inhibitory effect: compounds incubated 10 minutes prior to capsaicin challenge
T1 construct: rat trigeminal neuronal cells, that therefore were identified as TRPV1 expressing neurons; endogenous in cells; host or cells: primary trigeminal ganglion neurons from 2-day-old Sprague-Dawley rats
Protocol: Ca^2+ Fluorescence Measurements in Cultured Rat Trigeminal Ganglia
Newborn rats (2 days old) were terminally anaesthetized and decapitated. Trigeminal ganglia were removed and rapidly placed in a cold phosphate buffered solution (PBS) before being transferred to collagenase/dispase (1 mg/ml dissolved in Ca^2+-Mg^2+-free PBS) for 35 min. at 37° C.^4.
After the enzymatic treatment the ganglia were rinsed three times with Ca^2+-Mg^2+-free PBS and then placed in 2 ml of cold DMEM supplemented with 10% foetal bovine serum (FBS, heat inactivated), 2 mM L-glutamine, 100 μ/ml penicillin and […] streptomycin. The ganglia were then dissociated into single cells by several passages through a series of syringe needles (23 G down to 25 G). Finally, the medium and ganglia cells sieved through a […] filter to remove debris and taken up with 8 ml of DMEM medium and centrifuged (200×g for 5 min.). The final cell pellet was re-suspended in DMEM medium (supplemented with 100 ng/ml mouse Nerve Growth Factor (mouse-NGF-7S) and cytosine-β-D-arabino-furanoside free base (ARA-C) […]). The cells were plated on poly-L-lysine (8.3 mM) and laminin (5 mM) coated 25 mm glass cover slips and kept for 2 to 5 days at 37° C. in a humidified incubator gassed with 5% CO2 and air. Plated neurons were loaded with Fura-2-AM-ester (3 μM) in Ca^2+ buffer solution of the following composition (mM): CaCl2 1.4, KCl 5.4, MgSO4 0.4, NaCl 135, D-glucose 5, HEPES 10 with BSA 0.1%, at pH 7.4, for 40 min at 37° C., washed twice with the Ca^2+ buffer solution and transferred to a chamber on the stage of a Nikon eclipse TE300 microscope. The dye was excited at 340 and 380 nm to indicate relative [Ca^2+]i changes by the F340/F380 ratio recorded with a dynamic image analysis system (Laboratory Automation 2.0, RCS, Florence, Italy). Capsaicin (0.1 μM) and ionomycin (5 μM) were added to the chamber. A calibration curve using a buffer containing Fura-2-AM-ester and determinant concentrations of free Ca^2+ was used to convert the obtained data from F340/F380 ratio to [Ca^2+]i (nM)^5.
The effects of Ia, Ib and Ic were tested against capsaicin-induced calcium mobilisation; Ia, Ib and Ic were incubated for 10 minutes prior to the capsaicin challenge. The inhibitory effect of the reference TRPV1 antagonist, capsazepine, was also tested.

vanilloid TRPV1 receptor [3] = molecular target: T1, vanilloid TRPV1 receptor; assay: Wiping test in rats (capsaicin-induced wiping movements); type: in vivo; settings: intraperitoneal; for effect on capsaicin-induced wiping in rats: 15 minutes prior to capsaicin challenge; for ED50 capsaicin-induced wiping: 15 minutes prior to capsaicin challenge (capsaicin 0.1%, 50 μl on conjunctiva), mean and 95% fiducial limits
Protocol: Newborn and adult Sprague-Dawley rats (˜250 g) were used (Harlam, Italy). All experiments complied with the national guidelines and were approved by the regional ethics committee.
The irritant effect (induction of wiping movements) of capsaicin was assessed by applying capsaicin 0.1% (50 μl) on the rat conjunctiva and the number of wiping movements was recorded during the 60 s period that followed the application. In another set of experiments, the rats were treated intraperitoneally with different doses of Ia and Ic and capsaicin-induced wiping was studied.

T1 sequence (O35433 whole entry): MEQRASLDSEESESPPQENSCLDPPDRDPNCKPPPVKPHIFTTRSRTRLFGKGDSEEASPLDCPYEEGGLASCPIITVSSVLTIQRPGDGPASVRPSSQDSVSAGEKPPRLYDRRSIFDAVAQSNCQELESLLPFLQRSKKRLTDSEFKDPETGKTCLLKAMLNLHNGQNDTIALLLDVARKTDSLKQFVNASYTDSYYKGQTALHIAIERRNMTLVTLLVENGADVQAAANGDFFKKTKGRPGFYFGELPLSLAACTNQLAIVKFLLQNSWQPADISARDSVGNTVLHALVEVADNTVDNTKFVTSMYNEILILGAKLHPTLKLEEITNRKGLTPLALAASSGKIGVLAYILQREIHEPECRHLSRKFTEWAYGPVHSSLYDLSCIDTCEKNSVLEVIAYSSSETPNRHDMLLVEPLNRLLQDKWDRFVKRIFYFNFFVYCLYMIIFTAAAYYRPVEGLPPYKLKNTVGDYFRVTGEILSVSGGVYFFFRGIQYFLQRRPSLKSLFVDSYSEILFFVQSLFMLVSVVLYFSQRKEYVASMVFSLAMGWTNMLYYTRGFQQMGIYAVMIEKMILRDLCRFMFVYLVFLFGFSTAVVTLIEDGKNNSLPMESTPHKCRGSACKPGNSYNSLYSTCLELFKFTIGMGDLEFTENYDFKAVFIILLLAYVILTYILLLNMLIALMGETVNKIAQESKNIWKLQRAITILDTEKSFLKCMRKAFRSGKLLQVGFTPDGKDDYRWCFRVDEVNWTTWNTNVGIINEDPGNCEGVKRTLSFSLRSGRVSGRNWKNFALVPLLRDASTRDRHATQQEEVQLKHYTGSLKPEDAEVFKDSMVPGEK

| SMILES | Mobilization of [Ca2+]i evoked by KCl [1] | IC50 (vanilloid TRPV1 receptor [2]) | concentration giving complete inhibition of the response to capsaicin (vanilloid TRPV1 receptor [2]) | threshold concentration that produced an inhibitory effect (vanilloid TRPV1 receptor [2]) | effect on capsaicin-induced wiping in rats (vanilloid TRPV1 receptor [3]) | ED50 capsaicin-induced wiping (vanilloid TRPV1 receptor [3]) |
| --- | --- | --- | --- | --- | --- | --- |
| COc1cc(CNC(=S)NCc2ccc(C(F)(F)F)cc2)c(I)cc1O [Ic, 1-(4-trifluoromethyl)-3-(2-iodo-4-hydroxy-5-methoxybenzyl) thiourea] | not affected | 70 nM | 3 µM | 1 nM | significantly reduced | 7.20 (6.34-7.89) mg/kg |
| COc1cc(CNC(=S)NCc2ccc(C(C)(C)C)cc2)c(Cl)cc1O [Ib, 1-(4-tert-butyl)-3-(2-chloro-4-hydroxy-5-methoxybenzyl) thiourea] | not affected | 3.86 nM | – | 0.1 nM | – | – |
| COc1cc(CNC(=S)NCc2ccc(C(C)(C)C)cc2)c(I)cc1O [Ia, 1-(4-tert-butyl)-3-(2-iodo-4-hydroxy-5-methoxybenzyl) thiourea] | not affected | 3.48 nM | 0.1 µM | 0.1 nM | significantly reduced | 2.76 (2.05-3.35) mg/kg |
| Oc1cc2c(cc1O)CN(C(=S)NCCc1ccc(Cl)cc1)CCC2 [capsazepine, reference compound] | – | 2340 nM | – | – | – | – |
